Holding throughout (type): cell-based, human
One assay relates to Colo320-SLC6A6-OEx. Nature of the assay: Ratio of SP cells upon addition of taurine, Colo320-SLC6A6-OEx. As to the method: (§1) After being transformed in the same manner as shown in Example 8(1) above, the cells were detached on the second day with DISSOCIATION BUFFER (Invitrogen). The cells were stained at 37° C. for 1 hour with a solution prepared to contain 10 μg/mL Hoechst 33342 in PBS(−), followed by analysis using FACS Canto II and a Violet laser (excitation wavelength: 407 nm). Moreover, to identify an SP fraction, an additional experiment was conducted in which verapamil serving an inhibitor of drug efflux transporters was added at a concentration of 30 μg/mL.
(§2) For this analysis, Colo320 cells (which are human colorectal cancer cells) were engineered to overexpress SLC6A6 and cultured for 2 days in a medium supplemented with taurine at a concentration of 0.05 mM, 0.1 mM, 0.5 mM, 1 mM or 5 mM, and then analyzed for SP cells in the same manner as shown in Example 1(3).

The subject of another assay is Colo320-Mock. The assay is described as follows: Ratio of SP cells upon addition of taurine, Colo320-Mock. The note with it: taurine 0.05-5 mM, FIG. 10. As to the method: as §1, §2
In assay [1] the test system is SW480 cells (SP and MP fractions). The assay is described as follows: FACS staining of SP and MP fractions of SW480 cells. The conditions noted are these: SW480, verapamil 30 μg/mL. As to the method: Moreover, to identify an SP fraction, an additional experiment was conducted in which verapamil serving an inhibitor of drug efflux transporters was added at a concentration of 30 μg/mL.
SLC6A6 expression was analyzed for the SP fraction and non-SP fraction (i.e., major population (MP) fraction) of SW480 cells, which are human colorectal cancer cells.

Experimental findings from patent US10214584B2, “Therapeutic pharmaceutical composition employing anti-SLC6A6 antibody” (ORDER-MADE MEDICAL RESEARCH INC., priority 2014, dated 2019) are described below.

`NCCS(=O)(=O)O` [taurine]: the “increase of ratio of SP cells compared to the absence of taurine” value in the assay with Colo320-SLC6A6-OEx (5 mM taurine) was “about 2.5 fold”. The “ratio of SP cells” value in the assay with Colo320-SLC6A6-OEx (5 mM taurine, cultured 2 days (17.0% in the absence of taurine)) was 26.7%. The “number of SP cells” value in the assay with Colo320-SLC6A6-OEx (taurine 0.05-5 mM, FIG. 10) was “increased in a manner dependent on the added concentration of taurine”; in the assay with Colo320-Mock, “increased in a manner dependent on the added concentration of taurine”.
With `COc1ccc(CCN(C)CCCC(C#N)(c2ccc(OC)c(OC)c2)C(C)C)cc1OC` (centres unmarked) [verapamil], in assay [1], the “SP cells in the presence of verapamil” value was “no SP cells were observed”.
